Laboratory results reported in the NIST ThermoML archive (doi:10.1016/j.jct.2010.07.002).

Key:
[1] = 101.33 kPa, Liquid, Vibrating tube method
[2] = isobaric coefficient of expansion; conditions: 101.33 kPa, Liquid, Vibrating tube densimeter
[3] = xn = mol fraction of the nth substance listed; conditions: 101.3 kPa, Liquid, Vibrating tube method

C[N+](=O)[O-] [nitromethane]
Conditions | isobaric coefficient of expansion, 278.15 K | isobaric coefficient of expansion, 288.15 K | isobaric coefficient of expansion, 298.15 K | isobaric coefficient of expansion, 308.15 K | isobaric coefficient of expansion, 318.15 K | mass density, 278.15 K [kg/m3] | mass density, 288.15 K [kg/m3] | mass density, 298.15 K [kg/m3] | mass density, 308.15 K [kg/m3] | mass density, 318.15 K [kg/m3]
[1] | – | – | – | – | – | 1158.25 | 1144.75 | 1131.18 | 1117.53 | 1103.79
[2] | 0.00116 1/K | 0.00118 1/K | 0.0012 1/K | 0.00122 1/K | 0.00125 1/K | – | – | – | – | –

C[N+](=O)[O-] [nitromethane] + O
mass density [kg/m3], [3]
Conditions | 278.15 K | 288.15 K | 298.15 K | 308.15 K | 318.15 K
x2 = 0.001777 | 1158.13 | 1144.64 | 1131.07 | 1117.42 | 1103.68
x2 = 0.002859 | 1158.06 | 1144.56 | 1130.99 | 1117.35 | 1103.61
x2 = 0.004913 | 1157.94 | 1144.44 | 1130.87 | 1117.22 | 1103.48
x2 = 0.00632 | 1157.85 | 1144.35 | 1130.78 | 1117.13 | 1103.39
x2 = 0.008036 | 1157.74 | 1144.24 | 1130.67 | 1117.02 | 1103.29
x2 = 0.009712 | 1157.64 | 1144.14 | 1130.57 | 1116.92 | 1103.18
x2 = 0.01188 | 1157.5 | 1144 | 1130.43 | 1116.79 | 1103.06
x2 = 0.01446 | 1157.34 | 1143.85 | 1130.28 | 1116.63 | 1102.9
x2 = 0.01696 | 1157.19 | 1143.7 | 1130.13 | 1116.49 | 1102.75
x2 = 0.02033 | 1156.99 | 1143.5 | 1129.93 | 1116.29 | 1102.56
x2 = 0.02492 | 1156.72 | 1143.23 | 1129.66 | 1116.02 | 1102.3
x2 = 0.02911 | 1156.49 | 1143 | 1129.43 | 1115.79 | 1102.07

[2H]O[2H] [water-d2] + C[N+](=O)[O-]
mass density [kg/m3], [3]
Conditions | 278.15 K | 288.15 K | 298.15 K | 308.15 K | 318.15 K
x1 = 0.001672 | 1158.21 | 1144.71 | 1131.14 | 1117.49 | 1103.75
x1 = 0.002547 | 1158.18 | 1144.68 | 1131.11 | 1117.46 | 1103.73
x1 = 0.004545 | 1158.14 | 1144.64 | 1131.07 | 1117.42 | 1103.67
x1 = 0.00623 | 1158.09 | 1144.59 | 1131.02 | 1117.37 | 1103.63
x1 = 0.008336 | 1158.04 | 1144.54 | 1130.97 | 1117.32 | 1103.58
x1 = 0.009484 | 1158.01 | 1144.51 | 1130.94 | 1117.3 | 1103.56
x1 = 0.01177 | 1157.96 | 1144.46 | 1130.89 | 1117.24 | 1103.5
x1 = 0.01408 | 1157.9 | 1144.4 | 1130.83 | 1117.19 | 1103.45
x1 = 0.01703 | 1157.83 | 1144.34 | 1130.77 | 1117.12 | 1103.38
x1 = 0.02007 | 1157.77 | 1144.27 | 1130.7 | 1117.06 | 1103.32
x1 = 0.02274 | 1157.71 | 1144.21 | 1130.64 | 1117 | 1103.26
x1 = 0.02464 | 1157.67 | 1144.17 | 1130.6 | 1116.97 | 1103.22
x1 = 0.02688 | 1157.62 | 1144.12 | 1130.55 | 1116.92 | 1103.17
